Here are results for six molecules from patent US9592228B2, “Treatment of inflammation using alpha 7 receptor-binding agonists” (THE FEINSTEIN INSTITUTE FOR MEDICAL RESEARCH, priority 2002, dated 2017).

Assay [1] has as its system LPS induced TNF-α release from murine RAW 264.7 macrophage-like cells. Description: cells. It is filed as cell-based.
Assay [2] concerns TNF production by LPS-stimulated nicotinic acetylcholine receptor α7 subunit knockout peritoneal macrophages. The format is cell-based, mouse.
Assay [3] relates to TNF production by LPS-stimulated wild type peritoneal macrophages. Description: TNF production by wild type peritoneal macrophages. It is filed as cell-based, mouse. The following applies: 4 h, ELISA, mean ± s.e.m., n = 8. (In general: ELISA stands for enzyme-linked immunosorbent assay.)
The next assay concerns Balb/c mice. The following applies: mouse, in vivo.
The subject of assay [4] is C57 B/6 mice. The following applies: mouse, in vivo.
For assay [5], the system named is C57 B/6 mice. The following applies: mouse, in vivo. This is another data set of the same source.
The target in assay [6] is α-bungarotoxin-binding nicotinic receptors on primary human macrophages (Homo sapiens, UniProt P36544).
In a further assay the test system is macrophages. The following applies: data not shown.
Where [7] appears, read: agonist 1 μM added 5-10 min before LPS (100 ng/ml).
Where [8] appears, read: agonist 10 μM added 5-10 min before LPS (100 ng/ml).

“And” between values parts separate entries of the source, which are not always exact repeats. Identical values can stand only once. Like-named read-outs stand apart in the source and are kept apart here.

As usually defined, the IC50 is the midpoint of a concentration-inhibition curve.

α-bungarotoxin-binding nicotinic receptors on primary human macrophages, sequence (P36544 23-502): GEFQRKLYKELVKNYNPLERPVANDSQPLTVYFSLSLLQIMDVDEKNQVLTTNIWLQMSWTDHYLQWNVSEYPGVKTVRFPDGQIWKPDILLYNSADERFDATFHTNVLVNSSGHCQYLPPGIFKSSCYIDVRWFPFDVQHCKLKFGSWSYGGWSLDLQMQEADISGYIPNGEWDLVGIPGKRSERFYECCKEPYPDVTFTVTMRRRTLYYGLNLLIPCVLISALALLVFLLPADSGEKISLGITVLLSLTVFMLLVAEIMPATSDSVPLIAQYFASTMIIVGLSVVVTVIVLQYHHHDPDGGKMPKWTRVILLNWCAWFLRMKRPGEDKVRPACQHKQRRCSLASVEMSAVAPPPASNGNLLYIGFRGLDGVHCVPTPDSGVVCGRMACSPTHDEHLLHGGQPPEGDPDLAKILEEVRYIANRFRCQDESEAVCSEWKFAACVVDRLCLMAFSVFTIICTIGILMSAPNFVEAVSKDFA

For `O=C1NCC2(CN3CCC2CC3)O1` (single isomer, unassigned; (-)) [Compound (VII), (−)-spiro[1-azabicyclo[2.2.2]octane-3,5′-oxazolidin-2′-one]], in assay [1], the “TNF-α release from RAW 264.7 cells at the higher concentrations” value is on record as “inhibit TNF-α release” and the “decrease of TNF-α release compared to control cells” value is recorded as “more than four times”.

Regarding `CC(=O)OCC[N+](C)(C)C` [Ach, acetylcholine], the TNF is 20.4 ± 3.8 ng/mL and 21.4 ± 2.4 ng/mL in assay [2]; 10.3 ± 1.1 ng/mL in assay [3] (setting [7]); 5.7 ± 0.9 ng/mL in assay [3] (setting [8]).

In the case of `COc1ccc(/C=C2\CCCN=C2c2cccnc2)c(OC)c1` [Compound (V), 3-2,4-dimethoxybenzylidene anabaseine], the “inhibition of TNF-α release” value in assay [1] is recorded as “dose dependently inhibits”. In addition, the “mice survived on Day 14” value in the assay on Balb/c mice is recorded as 91%.

As for `COc1cc(O)ccc1/C=C1\CCCN=C1c1cccnc1` [Compound (VI), 3-(4-hydroxy-2-methoxybenzylidene)anabaseine], in the assay on C57 B/6 mice [4], the “colon length compared to control mice” value was “slightly greater” and the “colon weight (wet weight) compared to control condition” value was “decreased”. Also, the “percent inhibition of TNF-α” value in assay [1] is “dose dependently inhibits”. For the same molecule, in assay [1] (Mus musculus, RAW264.7, read-out: estimated IC50, inhibition of TNF-α), the 50% inhibitory concentration (IC50) was around 900 nM. Besides, the “decrease of the level of circulating TNF-α compared to vehicle control” value in the assay on C57 B/6 mice [5] is “approximately 50%”. In addition, in the assay on Balb/c mice, the “mice survived on Day 14” value worked out at 82%.

With `CN1CCCC1c1cccnc1` (stereo not shown) [nicotine], the “effect of pretreatment on intensity of α-bungarotoxin binding” value in assay [6] was “markedly reduced”. Moreover, the “inhibition of TNF-α release” value in assay [1] (0.001-100 uM added five minutes before LPS (500 ng/ml), 4 hours, ELISA, FIG. 7) is on record as “dose dependently inhibits”. In addition, the “inhibition of LPS-induced TNF release in RAW264.7” value in assay [1] (data not shown) is given as “significantly inhibit”. Also, the TNF was 17.8 ± 0.6 ng/mL and 17.4 ± 2.9 ng/mL in assay [2]; 5.2 ± 0.9 ng/mL in assay [3] (setting [7]); 7.3 ± 1.0 ng/mL in assay [3] (setting [8]). Moreover, the “TNF production by α7 knockout macrophages in the presence of the agonist” value in assay [2] is on record as “produced TNF normally”. Further, the calcium influx result in the assay on macrophages is “induces transient calcium influx”.

For α-bungarotoxin, the “binding of α-bungarotoxin on the macrophage surface” value in assay [6] is given as “Strong binding”.
